Measured values reported in the supplement of paper PMC11061612.

Legend:
M14 (Melanoma) [1] = experiment: combination Emax (second highest fraction inhibited in the dose matrix, 72 h); higher = more inhibition; extreme values may be limits of the assay
Summary of the method: (§1)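 Cell lines grown in DMEM/F12 or RPMI with 10% FBS were plated in 1536-well plates and held 24 hours at 37°C, 5% CO2 before 72 hours of exposure to two-drug dose matrices, with DMSO typically at 0.2%. CellTiter-Glo 2.0 luminescence gave viability, which was converted to inhibition. Vehicle wells were set to 0 and blank wells to 1. Combination Emax is the second-highest inhibition in the matrix, and Bliss excess is the observed combination effect minus the expected EA + EB − EA·EB, where EA and EB are the single-agent effects.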

[2] = test system: MDA-MB-175-VII (Breast Carcinoma); experiment: Bliss excess, mean over the matrix (fraction); higher = more synergy
Summary of the method: as §1

[3] = test system: L-363 (Plasma Cell Myeloma); experiment: as above
Summary of the method: as §1

[4] = test system: SNU-1 (Gastric Carcinoma); experiment: as above
Summary of the method: as §1

[5] = test system: ATN-1 (T-Lymphoblastic Leukemia); experiment: as above
Summary of the method: as §1

[6] = test system: NCI-H1048 (Small Cell Lung Carcinoma); experiment: as above
Summary of the method: as §1

[7] = test system: OCI-M1 (Acute Myeloid Leukemia); experiment: as above
Summary of the method: as §1

SK-N-DZ (Neuroblastoma) = experiment: as above
Summary of the method: as §1

[8] = test system: RPMI-8402 (T-Lymphoblastic Leukemia); experiment: as above
Summary of the method: as §1

M14 (Melanoma) [9] = experiment: as above
Summary of the method: as §1

[10] = test system: KNS-62 (Squamous Cell Lung Carcinoma); experiment: as above
Summary of the method: as §1

[11] = test system: GRANTA-519 (B-Cell Non-Hodgkin's Lymphoma); experiment: as above
Summary of the method: as §1

[12] = test system: C2BBe1 (Colorectal Carcinoma); experiment: as above
Summary of the method: as §1

[13] = test system: SBC-3 (Small Cell Lung Carcinoma); experiment: as above
Summary of the method: as §1

[14] = test system: NCI-H1944 (Lung Adenocarcinoma); experiment: as above
Summary of the method: as §1

[15] = test system: NCI-H2170 (Squamous Cell Lung Carcinoma); experiment: as above
Summary of the method: as §1

[16] = test system: HT-1197 (Bladder Carcinoma); experiment: as above
Summary of the method: as §1

[17] = test system: BT-474 (Breast Carcinoma); experiment: as above
Summary of the method: as §1

RVH-421 (Melanoma) [18] = experiment: combination Emax (second highest fraction inhibited in the dose matrix, 72 h); higher = more inhibition; extreme values may be limits of the assay
Summary of the method: as §1

RVH-421 (Melanoma) [19] = experiment: Bliss excess, mean over the matrix (fraction); higher = more synergy
Summary of the method: as §1
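Wherever Bliss excess, mean over the matrix is given: after 72 h of two-drug dosing.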

SMILES | combination Emax (M14 (Melanoma) [1]) | Bliss excess [2] | Bliss excess [3] | Bliss excess [4] | Bliss excess [5] | Bliss excess [6] | Bliss excess [7] | Bliss excess (SK-N-DZ (Neuroblastoma)) | Bliss excess [8] | Bliss excess (M14 (Melanoma) [9]) | Bliss excess [10] | Bliss excess [11] | Bliss excess [12] | Bliss excess [13] | Bliss excess [14] | Bliss excess [15] | Bliss excess [16] | Bliss excess [17] | combination Emax (RVH-421 (Melanoma) [18]) | Bliss excess (RVH-421 (Melanoma) [19])
C=CCn1c(=O)c2cnc(Nc3ccc(N4CCN(C)CC4)cc3)nc2n1-c1cccc(C(C)(C)O)n1 [AZD1775] + C1CN(CCC1(C(=O)N[C@@H](CCO)C2=CC=C(C=C2)Cl)N)C3=NC=NC4=C3C=CN4 [Capivasertib] (first compound max 3 µM, partner max 3 µM) | 0.766 | 0.0171 | -0.0379 | 0.0488 | 0.0364 | -0.0301 | 0.0245 | -0.0116 | 0.0084 | 0.0065 | -0.0128 | -0.0163 | -0.077 | -0.0786 | 0.0207 | -0.0454 | -0.0488 | 0.0145 |  | 
Cc1cc2ncnn2cc1Nc1ncc2c(n1)n(C1CCOCC1)c(=O)n2C [AZD7648] + CCN(CCO)CCCOc1ccc2c(Nc3cc(CC(=O)Nc4cccc(F)c4)[nH]n3)ncnc2c1 [AZD2811] (first compound max 10 µM, 7x7, partner max 1 µM) |  | -0.0042 | 0.0321 | 0.0214 | -0.0768 | -0.0197 | 0.0449 | 0.088 | -0.0443 |  | 0.0489 | 0.0287 | 0.0124 | 0.0455 | 0.0709 | 0.0187 | -0.0131 | -0.0214 | 0.299 | -0.0193
Cc1cc2ncnn2cc1Nc1ncc2c(n1)n(C1CCOCC1)c(=O)n2C [AZD7648] + CN(C)CCCOc1ccc(-c2ccc3ncc4c(c3c2)n(C2CCOCC2)c(=O)n4C)cn1 [AZD0156] (first compound max 10 µM, 7x7, partner max 1 µM) |  | -0.0453 | 0.0303 | 0.01 | 0.0185 | 0.0121 | 0.0385 | 0.038 | 0.0104 |  | -0.0064 | 0.0266 | -0.0408 | 0.0332 | -0.0039 | 0.009 | -0.0117 | 0.0241 | 0.274 | -0.0099
Cc1cc2ncnn2cc1Nc1ncc2c(n1)n(C1CCOCC1)c(=O)n2C [AZD7648] + C[C@@H]1COCCN1C2=NC(=NC(=C2)C3(CC3)[S@](=N)(=O)C)C4=C5C=CNC5=NC=C4 [AZD6738] (first compound max 10 µM, 7x7, partner max 10 µM) |  | 0.0441 | 0.0096 | -0.013 | 0.0406 | 0.0425 | 0.0125 | -0.018 | 0.0216 |  | 0.0778 | -0.0479 | 0.0209 | 0 | 0.0055 | -0.0153 | -0.0226 | 0.0245 | 0.322 | 0.0381
Cc1cc2ncnn2cc1Nc1ncc2c(n1)n(C1CCOCC1)c(=O)n2C [AZD7648] + O=C(c1cc(Cc2n[nH]c(=O)c3ccccc23)ccc1F)N1CCN(C(=O)C2CC2)CC1 [Olaparib] (first compound max 10 µM, 7x7, partner max 10 µM) |  | -0.0525 | 0.0266 | 0.0384 | -0.031 | -0.0593 | -0.0248 | 0.0102 | -0.0158 |  | -0.0507 | -0.0416 | -0.0402 | -0.0148 | -0.033 | -0.0052 | 0.0045 | -0.0457 | 0.0825 | -0.0684
COc1cc2c(cc1OCCCCCOc1cc3c(cc1OC)C(=O)N1C=C(C)C[C@H]1C=N3)N=C[C@@H]1CC(C)=CN1C2=O [SG3199] + O=C(c1cc(Cc2n[nH]c(=O)c3ccccc23)ccc1F)N1CCN(C(=O)C2CC2)CC1 [Olaparib] (first compound max 0.001 µM, 7x7, partner max 10 µM) |  | -0.0489 | -0.0123 | 0.0755 | -0.0249 | -0.0432 | -0.0065 | -0.0199 | -0.0259 |  | -0.0464 | -0.0226 | -0.0188 | -0.0516 | -0.0259 | -0.009 | -0.028 | -0.0487 | 0.0596 | -0.0773
